Source: ChEMBL document CHEMBL4118128, “Discovery of chiral dihydropyridopyrimidinones as potent, selective and orally bioavailable inhibitors of AKT” (Bioorg Med Chem Lett, 2018)
Converted amounts (≈) assume the structure as drawn. The source made the active and inactive calls. No cut-off for these calls is given here.

Columns and labels:
[1] = organism: Homo sapiens; test: Selectivity index, ratio of IC50 for human recombinant ROCK2 (11 to 552 residues) expressed in insect cells to IC50 for human recombinant AKT1 expressed in insect cells
[2] = target: T1, RAC-alpha serine/threonine-protein kinase (Homo sapiens, UniProt P31749); test: Inhibition of AKT1 in human U87MG cells assessed as reduction in GSK3beta Ser9 phosphorylation incubated for 1 hr by alpha screen Surefire assay; assay type: cell-based
T1 sequence (P31749 whole entry): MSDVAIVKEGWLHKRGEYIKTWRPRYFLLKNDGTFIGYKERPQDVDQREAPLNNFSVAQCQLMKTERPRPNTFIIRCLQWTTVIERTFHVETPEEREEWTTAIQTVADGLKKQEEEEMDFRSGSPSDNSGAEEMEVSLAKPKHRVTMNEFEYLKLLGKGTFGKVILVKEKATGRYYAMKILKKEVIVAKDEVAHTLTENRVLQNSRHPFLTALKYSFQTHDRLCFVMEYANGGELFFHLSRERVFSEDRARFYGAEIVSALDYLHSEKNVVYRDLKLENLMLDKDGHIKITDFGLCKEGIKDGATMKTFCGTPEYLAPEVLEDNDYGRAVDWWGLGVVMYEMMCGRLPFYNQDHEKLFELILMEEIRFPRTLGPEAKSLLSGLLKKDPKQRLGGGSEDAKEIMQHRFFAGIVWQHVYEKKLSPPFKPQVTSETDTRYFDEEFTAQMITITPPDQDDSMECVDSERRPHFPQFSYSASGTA

[3] = target: Ribosomal protein S6 kinase alpha-1 (Homo sapiens, UniProt Q15418); test: Inhibition of human RSK1 measured at apparent ATP Km level
Chain of Ribosomal protein S6 kinase alpha-1 (Q15418 whole entry): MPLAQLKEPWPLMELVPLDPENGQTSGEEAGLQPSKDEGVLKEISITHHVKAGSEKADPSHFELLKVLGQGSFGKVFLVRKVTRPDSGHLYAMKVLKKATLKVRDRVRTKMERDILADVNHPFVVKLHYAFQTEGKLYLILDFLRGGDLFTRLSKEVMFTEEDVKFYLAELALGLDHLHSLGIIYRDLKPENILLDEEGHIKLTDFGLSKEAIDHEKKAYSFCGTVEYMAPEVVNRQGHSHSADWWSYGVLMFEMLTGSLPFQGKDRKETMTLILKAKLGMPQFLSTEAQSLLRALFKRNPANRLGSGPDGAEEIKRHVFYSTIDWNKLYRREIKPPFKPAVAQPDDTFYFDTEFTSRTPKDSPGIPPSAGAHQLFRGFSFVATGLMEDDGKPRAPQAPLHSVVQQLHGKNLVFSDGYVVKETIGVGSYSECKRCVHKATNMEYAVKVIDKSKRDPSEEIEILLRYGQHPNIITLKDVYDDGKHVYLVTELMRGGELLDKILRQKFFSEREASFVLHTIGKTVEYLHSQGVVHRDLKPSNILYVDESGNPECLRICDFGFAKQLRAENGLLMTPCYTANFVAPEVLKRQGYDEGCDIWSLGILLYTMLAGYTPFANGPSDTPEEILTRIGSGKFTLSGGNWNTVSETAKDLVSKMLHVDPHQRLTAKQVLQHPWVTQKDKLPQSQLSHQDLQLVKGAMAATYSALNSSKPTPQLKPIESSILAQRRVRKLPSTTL

[4] = Oral bioavailability in Sprague-Dawley rat at 5 mg/kg by LC-MS/MS method; assay type: ADME, organism-based; conditions: in vivo
[5] = Lipophilicity, log P of the compound; assay type: physicochemical; conditions: octanol/water
[6] = target: Protein kinase C beta type (Homo sapiens, UniProt P05771); test: Inhibition of human PKCbeta2 measured at apparent ATP Km level
Chain of Protein kinase C beta type (P05771 whole entry): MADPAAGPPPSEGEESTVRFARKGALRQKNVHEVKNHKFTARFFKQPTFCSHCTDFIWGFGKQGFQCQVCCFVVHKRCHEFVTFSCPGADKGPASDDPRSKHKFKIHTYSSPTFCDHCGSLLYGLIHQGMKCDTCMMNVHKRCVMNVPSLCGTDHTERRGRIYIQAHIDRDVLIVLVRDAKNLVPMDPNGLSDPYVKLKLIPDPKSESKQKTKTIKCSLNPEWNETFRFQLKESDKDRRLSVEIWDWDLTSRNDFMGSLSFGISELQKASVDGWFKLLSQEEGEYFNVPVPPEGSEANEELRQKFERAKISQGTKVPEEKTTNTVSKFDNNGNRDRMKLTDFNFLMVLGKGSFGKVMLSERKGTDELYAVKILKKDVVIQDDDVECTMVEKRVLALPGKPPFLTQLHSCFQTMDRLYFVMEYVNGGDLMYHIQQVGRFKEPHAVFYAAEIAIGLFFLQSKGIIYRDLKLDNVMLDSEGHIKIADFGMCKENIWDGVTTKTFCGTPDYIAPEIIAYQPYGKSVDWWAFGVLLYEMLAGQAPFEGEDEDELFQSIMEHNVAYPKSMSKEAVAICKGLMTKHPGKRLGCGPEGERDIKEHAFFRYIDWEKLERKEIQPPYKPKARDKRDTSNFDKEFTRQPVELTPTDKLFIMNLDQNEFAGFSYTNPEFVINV

[7] = Aqueous solubility in pH 7.4 buffer; assay type: physicochemical
[8] = Volume of distribution at steady state in Sprague-Dawley rat at 10 mg/kg, iv or 5 mg/kg, po by LC-MS/MS method; assay type: ADME, organism-based; conditions: in vivo, read-out: Vdss
[9] = target: Voltage-gated inwardly rectifying potassium channel KCNH2 (Homo sapiens, UniProt Q12809); test: Inhibition of human ERG
Chain of Voltage-gated inwardly rectifying potassium channel KCNH2 (Q12809 whole entry): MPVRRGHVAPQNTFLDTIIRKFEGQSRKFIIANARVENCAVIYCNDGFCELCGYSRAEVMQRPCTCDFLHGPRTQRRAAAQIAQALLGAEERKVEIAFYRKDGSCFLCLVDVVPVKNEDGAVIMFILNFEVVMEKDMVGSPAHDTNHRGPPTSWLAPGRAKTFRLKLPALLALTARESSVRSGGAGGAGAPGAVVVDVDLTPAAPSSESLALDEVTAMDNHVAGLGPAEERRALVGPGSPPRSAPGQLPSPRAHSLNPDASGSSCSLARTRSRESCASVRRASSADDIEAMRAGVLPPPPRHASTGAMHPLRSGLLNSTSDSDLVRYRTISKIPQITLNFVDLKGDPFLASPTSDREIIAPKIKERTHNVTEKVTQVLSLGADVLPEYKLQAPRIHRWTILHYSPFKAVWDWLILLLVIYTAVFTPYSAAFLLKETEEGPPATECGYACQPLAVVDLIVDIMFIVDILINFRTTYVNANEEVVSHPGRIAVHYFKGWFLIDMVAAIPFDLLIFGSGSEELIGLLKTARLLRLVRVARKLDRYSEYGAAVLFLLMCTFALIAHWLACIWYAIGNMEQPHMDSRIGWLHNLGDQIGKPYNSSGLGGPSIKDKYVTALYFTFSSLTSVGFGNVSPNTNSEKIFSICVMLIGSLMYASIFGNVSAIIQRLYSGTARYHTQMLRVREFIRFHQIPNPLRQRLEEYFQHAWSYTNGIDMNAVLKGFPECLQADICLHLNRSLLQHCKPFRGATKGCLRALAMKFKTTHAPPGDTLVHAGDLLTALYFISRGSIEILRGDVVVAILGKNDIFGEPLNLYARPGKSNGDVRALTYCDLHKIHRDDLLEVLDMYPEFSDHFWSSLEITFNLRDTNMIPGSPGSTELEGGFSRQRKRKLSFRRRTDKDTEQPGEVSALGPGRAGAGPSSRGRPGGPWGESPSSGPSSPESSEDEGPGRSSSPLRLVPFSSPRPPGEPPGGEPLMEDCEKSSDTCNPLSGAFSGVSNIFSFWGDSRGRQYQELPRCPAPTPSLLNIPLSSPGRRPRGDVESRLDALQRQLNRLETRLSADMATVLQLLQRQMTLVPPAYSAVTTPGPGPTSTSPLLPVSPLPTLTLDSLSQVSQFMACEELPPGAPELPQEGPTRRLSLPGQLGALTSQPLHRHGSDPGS

[10] = Clearance in Sprague-Dawley rat at 10 mg/kg, iv by LC-MS/MS method; assay type: ADME, organism-based; conditions: in vivo
[11] = target: Rho-associated protein kinase 2 (Homo sapiens, UniProt O75116); test: Inhibition of histidine-tagged human recombinant ROCK2 (11 to 552 residues) expressed in insect cells using RFARKGSLRQKNV substrate incubated for 60 mins measured at apparent ATP Km level by kinase ADP-FP assay
Chain of Rho-associated protein kinase 2 (O75116 whole entry, the tested form may be a part): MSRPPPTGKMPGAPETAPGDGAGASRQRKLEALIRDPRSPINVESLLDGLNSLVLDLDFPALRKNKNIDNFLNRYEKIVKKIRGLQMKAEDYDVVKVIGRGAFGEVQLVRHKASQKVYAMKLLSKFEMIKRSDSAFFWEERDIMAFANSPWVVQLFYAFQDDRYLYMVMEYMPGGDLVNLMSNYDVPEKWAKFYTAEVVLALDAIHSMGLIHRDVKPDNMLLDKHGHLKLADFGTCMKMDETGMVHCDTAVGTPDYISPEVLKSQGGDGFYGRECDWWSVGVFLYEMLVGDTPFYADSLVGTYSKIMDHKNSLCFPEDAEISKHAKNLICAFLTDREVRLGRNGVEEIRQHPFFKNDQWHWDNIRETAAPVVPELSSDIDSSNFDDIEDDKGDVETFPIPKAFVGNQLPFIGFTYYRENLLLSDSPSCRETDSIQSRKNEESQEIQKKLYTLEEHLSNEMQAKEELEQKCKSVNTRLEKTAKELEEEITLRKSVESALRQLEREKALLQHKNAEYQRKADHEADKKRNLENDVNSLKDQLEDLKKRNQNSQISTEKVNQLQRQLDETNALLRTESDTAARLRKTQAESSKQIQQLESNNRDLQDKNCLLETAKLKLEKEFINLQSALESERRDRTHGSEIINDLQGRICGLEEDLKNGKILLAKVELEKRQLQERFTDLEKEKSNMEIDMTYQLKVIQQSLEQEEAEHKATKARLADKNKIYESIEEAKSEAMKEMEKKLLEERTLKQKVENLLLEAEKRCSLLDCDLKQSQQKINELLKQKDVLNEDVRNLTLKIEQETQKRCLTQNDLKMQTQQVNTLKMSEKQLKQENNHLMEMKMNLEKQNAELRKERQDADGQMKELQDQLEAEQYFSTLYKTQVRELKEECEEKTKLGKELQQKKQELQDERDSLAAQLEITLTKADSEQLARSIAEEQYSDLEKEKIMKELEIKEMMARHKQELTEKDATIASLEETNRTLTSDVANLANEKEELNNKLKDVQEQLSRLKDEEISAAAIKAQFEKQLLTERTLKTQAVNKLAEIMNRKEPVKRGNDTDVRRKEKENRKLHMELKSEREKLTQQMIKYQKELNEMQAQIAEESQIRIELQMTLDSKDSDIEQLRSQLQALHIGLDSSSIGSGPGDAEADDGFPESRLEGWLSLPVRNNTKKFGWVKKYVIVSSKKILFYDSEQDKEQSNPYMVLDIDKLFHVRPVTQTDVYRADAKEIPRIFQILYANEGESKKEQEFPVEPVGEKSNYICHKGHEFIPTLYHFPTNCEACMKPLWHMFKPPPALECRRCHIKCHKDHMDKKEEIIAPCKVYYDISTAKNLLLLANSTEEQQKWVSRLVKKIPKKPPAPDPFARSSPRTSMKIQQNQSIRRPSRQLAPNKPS

[12] = test system: Rattus norvegicus; test: Intrinsic unbound clearance in Sprague-Dawley rat at 10 mg/kg, iv by LC-MS/MS method; assay type: ADME, organism-based; conditions: in vivo
[13] = target: T1, RAC-alpha serine/threonine-protein kinase; test: Inhibition of human recombinant AKT1 expressed in insect cells incubated for 60 mins measured at apparent ATP Km level by kinase ADP-FP assay
[14] = Half life in Sprague-Dawley rat at 10 mg/kg, iv by LC-MS/MS method; assay type: ADME, organism-based; conditions: in vivo
[15] = target: Ribosomal protein S6 kinase beta-1 (Homo sapiens, UniProt P23443); test: Inhibition of human p70S6K measured at apparent ATP Km level
Chain of Ribosomal protein S6 kinase beta-1 (P23443 whole entry): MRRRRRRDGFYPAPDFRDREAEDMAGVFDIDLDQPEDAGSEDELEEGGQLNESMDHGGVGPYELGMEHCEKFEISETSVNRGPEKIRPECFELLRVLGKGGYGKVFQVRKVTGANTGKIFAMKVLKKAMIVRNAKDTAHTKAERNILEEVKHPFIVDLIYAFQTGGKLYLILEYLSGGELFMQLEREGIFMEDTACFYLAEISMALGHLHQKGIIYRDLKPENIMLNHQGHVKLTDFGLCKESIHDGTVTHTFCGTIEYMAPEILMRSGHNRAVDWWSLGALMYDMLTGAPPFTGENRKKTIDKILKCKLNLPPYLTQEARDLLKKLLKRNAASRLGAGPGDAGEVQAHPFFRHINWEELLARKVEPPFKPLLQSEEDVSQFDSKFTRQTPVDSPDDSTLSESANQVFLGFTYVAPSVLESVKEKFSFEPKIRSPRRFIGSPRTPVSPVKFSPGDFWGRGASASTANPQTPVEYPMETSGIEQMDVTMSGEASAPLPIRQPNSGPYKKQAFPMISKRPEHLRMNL

[16] = Inhibition of human PKA measured at apparent ATP Km level
[17] = AUC (0 to 24 hrs) in Sprague-Dawley rat at 5 mg/kg, po by LC-MS/MS method; assay type: ADME, organism-based; parameters: dose 5 mg/kg, time < 24 hr, route oral; conditions: in vivo
[18] = AUC (0 to 24 hrs) in wild type mouse at 2.5 mg/kg, po by LC-MS/MS method; assay type: ADME, organism-based; parameters: time < 24 hr, dose 2.5 mg/kg, route oral; conditions: in vivo
[19] = test system: Rattus norvegicus; test: Toxicity in human U87MG cells xenografted rat assessed as induction of body weight loss at 25 mg/kg, po bid for 4 weeks; assay type: organism-based; conditions: in vivo, 672 h
[20] = Cmax in P-gp and BCRP knockout mouse at 2.5 mg/kg, po by LC-MS/MS method; assay type: ADME, organism-based; parameters: dose 2.5 mg/kg, route oral; conditions: in vivo
[21] = test system: U-87 MG; test: Antitumor activity against human U87MG cells xenografted in rat assessed as inhibition of tumor growth at 25 to 50 mg/kg, po qd for 4 weeks; assay type: functional, organism-based; conditions: U-87MG ATCC
[22] = AUC (0 to 24 hrs) in P-gp and BCRP knockout mouse at 2.5 mg/kg, po by LC-MS/MS method; assay type: ADME, organism-based; parameters: time < 24 hr, dose 2.5 mg/kg, route oral; conditions: in vivo
[23] = test system: Rattus norvegicus; test: Toxicity in human U87MG cells xenografted rat assessed as induction of body weight loss at 25 to 50 mg/kg, po qd for 4 weeks; assay type: organism-based; conditions: in vivo, 672 h
[24] = Cmax in wild type mouse at 2.5 mg/kg, po by LC-MS/MS method; assay type: ADME, organism-based; parameters: dose 2.5 mg/kg, route oral; conditions: in vivo
[25] = test system: U-87 MG; test: Antitumor activity against human U87MG cells xenografted in rat assessed as inhibition of tumor growth at 25 mg/kg, po bid for 4 weeks; assay type: functional, organism-based; conditions: U-87MG ATCC
[26] = test system: Mus musculus; test: Ratio of AUC (0 to 24 hrs) in P-gp and BCRP knockout mouse at 2.5 mg/kg, po to AUC (0 to 24 hrs) in wild type mouse at 2.5 mg/kg, po; assay type: ADME, organism-based; conditions: in vivo

| SMILES | Ratio IC50 [1] | IC50 [2] | IC50 [3] | bioavailability [4] | logP [5] | IC50 [6] | solubility [7] | Vd [8] | INH [9] | clearance [10] | IC50 [11] | CL free [12] | IC50 [13] | half-life [14] | IC50 [15] | IC50 [16] | AUC(0-t) at 24 h [17] | AUC(0-t) at 24 h [18] | Cmax [20] | AUC(0-t) at 24 h [22] | also measured |
| --- | --- | --- | --- | --- | --- | --- | --- | --- | --- | --- | --- | --- | --- | --- | --- | --- | --- | --- | --- | --- | --- |
| C[C@@H]1CC(=O)Nc2ncnc(N3CCC(c4nc(C(F)(F)F)cn4CCN4CCCC4)CC3)c21 | > 1000 | 2460 nM | 272 nM | 64% | 1.66 | 16.3 µM | 1860 µg/mL (≈ 3900 µM) | 0.65 L/kg | > 100 µM | 2.18 mL/min/kg | > 20 µM | 66 mL/min/kg | 11 nM | 180 min | 876 nM | 124 nM | 24100 ng·h/mL |  |  |  |  |
| C[C@@H]1CC(=O)Nc2ncnc(N3CCC(c4nc(CCC(F)(F)F)cn4CCN4CCCC4)CC3)c21 | > 1000 | 92 nM | 568 nM | 55% | 2.39 | 3.98 µM | 990 µg/mL (≈ 1960 µM) | 11.6 L/kg | 18.5 µM | 74 mL/min/kg | > 20 µM | 43 mL/min/kg | 5 nM | 138 min | 399 nM | 84 nM | 638 ng·h/mL | 290 ng·h/mL | 109 ng/mL | 359 ng·h/mL | Activity [19]: Non-Toxic; TGI [21]: Dose-dependent effect; Activity [23]: Non-Toxic; Cmax [24]: 76 ng/mL; TGI [25]: Active |
| Cn1cc(-c2ccc(F)c(C(F)(F)F)c2)nc1C1CCN(c2ncnc3[nH]ncc23)CC1 [LY-2584702] |  |  |  |  |  |  |  |  |  |  |  |  |  |  | 4 nM |  |  |  |  |  |  |
| C[C@@H]1CC(=O)Nc2ncnc(N3CCC(c4nc(-c5ccc(F)c(C(F)(F)F)c5)cn4CCN4CCCC4)CC3)c21 | > 1000 | 39 nM | 20 nM |  | 4.84 | 0.036 µM | 35 µg/mL (≈ 61.2 µM) |  | 1.74 µM |  | > 20 µM |  | 3 nM |  | 35 nM | 653 nM |  |  |  |  |  |
| C[C@@H]1CC(=O)Nc2ncnc(N3CCC(c4nc(C5CCOCC5)cn4CCN4CCCC4)CC3)c21 | > 1000 | 230 nM | 699 nM | 14% | 0.95 | 20 µM | > 2000 µg/mL | 13.8 L/kg | > 100 µM | 64 mL/min/kg | > 20 µM | 85 mL/min/kg | 4 nM | 516 min | 1900 nM | 412 nM | 173 ng·h/mL | 108 ng·h/mL | 189 ng/mL | 501 ng·h/mL | Ratio [26]: 5; Cmax [24]: 33 ng/mL |
